In data set [1] the target is human Ether-a-go-go-Related Gene (hERG) potassium channel (Homo sapiens, UniProt Q12809). Briefly: Predictor hERG Fluorescence Polarization Assay. The format is binding.
A short description of data set [2]: Chromatographic hydrophobicity indexing. The format is physicochemical. Particulars: C18 RP-HPLC, rank among the test compounds.
The subject of data set [3] is neonatal rat ventricular cardiomyocytes (NRVCMs). Briefly: MTT viability assay of neonatal rat ventricular cardiomyocytes. The data set is classed as cell-based. Particulars: 0, 50, 100 and 200 µM; 24 or 48 h of analog exposure. A general note: Tetrazolium assays rely on reduction of a dye to a coloured formazan, in cell work by metabolically active cells.
Data set [4] shares this test system. As to the kind of experiment: LIVE/DEAD assay of neonatal rat ventricular cardiomyocytes. The data set is classed as cell-based. Particulars: 50 μM; 12, 24 and 48 h; apparent beginning 12 to 24 h.
The target in data set [5] is cytochrome P450 3A4 (CYP3A4) (Homo sapiens, UniProt P08684). Briefly: P450-Glo CYP3A4. The data set is classed as in vitro ADME. Particulars: 400 μM (parent hexosamines).
Sequence of cytochrome P450 3A4 (CYP3A4) (P08684 whole entry): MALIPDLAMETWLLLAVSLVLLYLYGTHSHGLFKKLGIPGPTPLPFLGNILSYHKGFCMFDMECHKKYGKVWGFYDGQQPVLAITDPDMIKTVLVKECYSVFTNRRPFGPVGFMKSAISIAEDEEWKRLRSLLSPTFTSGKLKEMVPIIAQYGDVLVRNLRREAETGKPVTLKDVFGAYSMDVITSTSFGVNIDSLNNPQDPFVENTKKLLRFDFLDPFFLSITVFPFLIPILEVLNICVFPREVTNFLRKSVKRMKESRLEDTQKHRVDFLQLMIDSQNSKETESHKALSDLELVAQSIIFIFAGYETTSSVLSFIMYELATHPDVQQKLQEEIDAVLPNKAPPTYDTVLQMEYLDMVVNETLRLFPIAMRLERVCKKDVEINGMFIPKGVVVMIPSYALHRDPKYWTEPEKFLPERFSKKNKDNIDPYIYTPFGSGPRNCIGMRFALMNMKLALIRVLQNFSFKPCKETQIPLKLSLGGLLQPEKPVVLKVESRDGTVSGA
Where [6] appears, read: read-out: hERG inhibition, concentration range, Fig. 8B & C.

This is an account of results in paper PMC6292510 (Molecular pharmaceutics, 2017).

Read-outs that look alike come from different tables or passages of the source.

Sequence of human Ether-a-go-go-Related Gene (hERG) potassium channel (Q12809 whole entry): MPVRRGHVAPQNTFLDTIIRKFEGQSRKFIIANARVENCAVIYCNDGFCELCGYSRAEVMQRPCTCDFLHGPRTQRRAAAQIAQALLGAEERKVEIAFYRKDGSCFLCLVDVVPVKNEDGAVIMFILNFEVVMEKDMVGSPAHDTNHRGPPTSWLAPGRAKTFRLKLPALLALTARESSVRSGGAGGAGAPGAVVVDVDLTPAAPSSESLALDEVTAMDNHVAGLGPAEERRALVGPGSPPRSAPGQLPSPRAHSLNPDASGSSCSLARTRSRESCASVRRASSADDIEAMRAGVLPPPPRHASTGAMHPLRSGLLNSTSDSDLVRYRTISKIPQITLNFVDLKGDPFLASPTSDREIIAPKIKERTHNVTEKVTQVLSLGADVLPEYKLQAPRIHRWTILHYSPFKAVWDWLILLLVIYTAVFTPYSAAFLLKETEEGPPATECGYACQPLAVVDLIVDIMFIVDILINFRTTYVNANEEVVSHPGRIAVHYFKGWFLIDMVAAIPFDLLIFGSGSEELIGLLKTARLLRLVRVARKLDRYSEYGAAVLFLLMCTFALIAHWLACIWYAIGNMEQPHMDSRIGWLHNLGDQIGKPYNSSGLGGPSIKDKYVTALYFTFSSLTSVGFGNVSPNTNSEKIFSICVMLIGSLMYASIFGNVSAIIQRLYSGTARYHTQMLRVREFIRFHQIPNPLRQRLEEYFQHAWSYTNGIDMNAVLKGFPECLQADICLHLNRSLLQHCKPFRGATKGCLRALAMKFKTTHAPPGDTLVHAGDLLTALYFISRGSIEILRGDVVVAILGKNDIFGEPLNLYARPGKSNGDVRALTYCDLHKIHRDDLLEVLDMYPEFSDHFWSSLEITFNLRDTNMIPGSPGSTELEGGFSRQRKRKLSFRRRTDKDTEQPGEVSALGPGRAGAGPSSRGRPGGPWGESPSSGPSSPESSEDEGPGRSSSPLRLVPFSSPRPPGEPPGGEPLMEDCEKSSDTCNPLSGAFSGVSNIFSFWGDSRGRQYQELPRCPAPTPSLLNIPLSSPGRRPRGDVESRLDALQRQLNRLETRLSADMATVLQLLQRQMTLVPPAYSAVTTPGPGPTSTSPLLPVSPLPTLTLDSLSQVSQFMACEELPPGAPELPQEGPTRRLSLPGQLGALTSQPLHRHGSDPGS

As for `CCCC(=O)OC1OC(CO)[C@@H](OC(=O)CCC)[C@H](OC(=O)CCC)C1NC(C)=O` (some centres unmarked) [1,3,4-O-Bu3GlcNAc], the “hERG inhibition (detectable or not)” value in data set [1] (up to 1 mM, the highest concentration tested) is “no detectable inhibition”.
Take `CCCC(=O)OC1O[C@H](CO)[C@@H](OC(=O)CCC)[C@H](OC(=O)CCC)[C@H]1NC(=O)CN=[N+]=[N-]` (some centres unmarked) [1,3,4-O-Bu3GlcNAz]: the IC50 in data set [1] (read-out: hERG inhibition IC50, fluorescence polarization, doses 69.7 pM to 1 mM) is 2.85 µM.
Take `CCCC(=O)OC1OC(CO)[C@@H](OC(=O)CCC)[C@H](OC(=O)CCC)C1NC(=O)CN=[N+]=[N-]` (some centres unmarked) [1,3,4-O-Bu3ManNAz]: the “lipophilicity rank by experimental CHI score” value in data set [2] was “second highest lipophilicity”.
Turning to `CCCC(=O)OC[C@H]1OC(O)[C@H](NC(C)=O)[C@@H](OC(=O)CCC)[C@@H]1OC(=O)CCC` (some centres unmarked) [3,4,6-O-Bu3GlcNAc], in data set [1] (setting [6]), the IC50 is 1 to 100 µM. Also, the “NRVCM cell viability (MTT)” value in data set [3] is listed as “significantly reduced NRVCM cell viability”. Besides, the “cardiomyocyte cell death (LIVE/DEAD)” value in data set [4] is “Significantly higher cell death”.
With `CCCC(=O)OC[C@H]1OC(O)[C@@H](NC(C)=O)[C@@H](OC(=O)CCC)[C@@H]1OC(=O)CCC` (some centres unmarked) [3,4,6-O-Bu3ManNAc], the “fold greater hERG potency versus 3,4,6-O-Bu3GlcNAc” value in data set [1] (ManNAc analog versus GlcNAc analog) is ~ 13 fold. In data set [1] (setting [6]), the IC50 is 1 to 100 µM. For the same compound, the “NRVCM cell viability (MTT)” value in data set [3] is on record as “significantly reduced NRVCM cell viability”. The “cardiomyocyte cell death (LIVE/DEAD)” value in data set [4] is listed as “Significantly higher cell death”.
Take `CC(=O)N[C@H]1[C@@H](O)[C@H](O)[C@@H](CO)O[C@@H]1O` [ManNAc]: the “effect on CYP3A4” value in data set [5] was “negligible effect”.
